According to patent US20210128596A1, “COMPOSITIONS AND METHODS FOR TREATING SEPTIC CARDIOMYOPATHY” (UNIVERSITY OF PENNSYLVANIA, priority 2017, published 2021):
“Also recorded” adds a separate entry of the source.

Legend:
[1] = tested on: ventricular tissue of septic mice; test: Antioxidant-related gene expression in ventricular tissue; format: in vivo, mouse; conditions: ventricular tissue 12 hours after CLP
Method: (§1) RNA purification and gene expression analysis—Total RNA was purified from AC16 cells or hearts using the TRIzol reagent according to the instructions of the manufacturer (Invitrogen). DNase-treated RNA was used for cDNA synthesis using the ProtoScript II First Strand cDNA Synthesis Kit (New England Biolabs). Quantitative real-time PCR was performed with the Sybr Select Master Mix (Applied Biosystems). Incorporation of the SYBR green dye into the PCR products was monitored with the Applied Biosystems StepOnePlus Real-Time PCR System. Samples were normalized against mouse 36B4 or human rps13 RNA.

[2] = tested on: protein kinase A (PKA); test: Protein kinase A (PKA) activity in AC16 cells; format: cell-based, human
Text: AC16 cells were either left untreated or treated with SDG, Liposaccharide (LPS), or both.
Cell culture—A human ventricular cardiomyocyte-derived cell line, designated AC-16, was used for some in vitro experiments. Cells were maintained in Dulbecco's modified Eagle's medium-nutrient mixture F-12 (DMEM-F-12; Invitrogen, Carlsbad, Calif.).

[3] = tested on: AC16 cells; test: mRNA levels of fusion and fission markers, quantitative PCR, LPS; format: cell-based, human
Method: AC16 cells were either left untreated or treated with Liposaccharide (LPS) in the absence or presence of SDG; the levels of DRP1, Opa, MFN1, MFN2, and FIS1 mRNAs were measured in quantitative PCR.
as §1

[4] = tested on: IL-1α, IL-1β, IL-6, IL-10 and TNFα; test: Plasma levels of cytokines (Milliplex); format: in vivo, mouse; conditions: plasma 12 hours post-surgery
Text: Inflammatory cytokines measurement—Circulating levels of IL-1α, IL-1β, IL-6, IL-10 and TNFα were quantified simultaneously from frozen plasma samples using the Milliplex MAP Mouse Cytokine kit (MCYTOMAG-70K-05) following the kit specifications. Samples were read using the Luminex MAGPIX multiplexing unit.

[5] = tested on: adult cardiomyocytes isolated from septic mice; test: Mitotracker Red staining of adult cardiomyocytes isolated from septic mice; format: in vivo, mouse; conditions: adult cardiomyocytes isolated 12 hours post-CLP
Method: Adult mouse cardiomyocytes isolation-Adult mouse cardiomyocytes (ACMs) were isolated from ventricles of C57BL/6 mice 12 hours post-sham surgery, CLP surgery or combined performance of CLP and treatment with LGM2605 at 6 hours post-surgery. Hearts from heparinized mice (90 USP; ip) were cannulated through the aorta. Hearts were perfused with perfusion buffer (120.4 mMNaCl, 14.7 mM KCL, 0.6 mM NaH2PO4, 0.6 mM KH2PO4, 1.2 mM MgSO4, 10 mM Hepes, 4.6 mM NaHCO3, 30 mMtaurine, 10 mM BDM, 5.5 mM glucose; pH 7.4) for 3 min followed by digestion with perfusion buffer containing 19250 units Collagenese type II (Worthington), 5-6 mg trypsin and 0.02 mM CaCl2 for 7 min. Ventricles were gently […] into small pieces, perfusion buffer containing 5 mg/ml BSA and 0.125 mM CaCl2 was added and filtered with 100 μm nylon. The filtrate was pelleted by gravity for 5 min, centrifuged for 30 sec at 700 rpm and the pellet resuspended in perfusion buffer containing 5 mg/ml BSA and 0.225 mM CaCl2. The cells were pelleted by gravity for 10 min, centrifuged for 30 sec at 700 rpm and the pellet resuspended in perfusion buffer containing 5 mg/ml BSA and 0.525 mM CaCl2. […] Mitotracker Red fluorescence was recorded at 581 (excitation) and 644 nm (emission).

[6] = tested on: AC16 cells; test: Mitochondrial number (Mitotracker Red) in LPS-treated AC16 cells; format: cell-based, human
Method: AC16 cells were either left untreated or treated for 12 hours with Liposaccharide (LPS) in the absence or presence of SDG, and mitochondria were stained.
To assess changes in the mitochondrial number, LPS stimulated AC16 cells and adult cardiomyocytes isolated 12 hours post-CLP were stained with 200 nM Mitotracker Red (M22425, Molecular Probes), and incubated for 30 minutes in the dark. Excess Mitotracker Red was removed with three washed of PBS solution. Mitotracker Red fluorescence was recorded at 581 (excitation) and 644 nm (emission).

[7] = tested on: ventricular tissue of septic mice; test: DHE staining of cardiac tissue (ROS); format: in vivo, mouse; conditions: ventricular tissue 12 hours post-CLP, LGM2605 6 h post-CLP
Method: DHE staining of cardiac tissue—Live myocardium was isolated from mice 12 hours after surgery and sectioned into 10 sections using a clean razor blade. Tissue was stained with 20 μM dihydroethidium (DHE) for 30 minutes at room temperature and imaged on a Zeiss Axio Observer Z1 fluorescent microscope at 490±10 nm excitation and 632±30 nm emission. Oxidized DHE fluoresces red and intercalates DNA. Individual nuclei were measured within each visual field using Zeiss Zen Blue software, and visual fields were averaged to measure mean fluorescence intensity for each mouse.

SMILES: COc1cc(C[C@@H](CO[C@@H]2O[C@H](CO)[C@@H](O)[C@H](O)[C@H]2O)[C@H](CO[C@@H]2O[C@H](CO)[C@@H](O)[C@H](O)[C@H]2O)Cc2ccc(O)c(OC)c2)ccc1O [LGM2605, secoisolariciresinol diglucoside]
- cardiac expression of antioxidant genes (NRF2, HO1, GSTM1, NQO1, UCP2, UCP3) [1]: not accompanied by prevention of the CLP-mediated changes in cardiac expression of antioxidant genes
- protein kinase A (PKA) activity ([2]; SDG alone): increased protein kinase A (PKA) activity
- protein kinase A (PKA) activity ([2]; SDG in the presence of LPS): this stimulation was abolished in the presence of LPS
- protein kinase A (PKA) activity ([2]; SDG with isoproterenol): the increase was amplified by isoproterenol
- levels of DRP1, Opa, MFN1, MFN2, and FIS1 mRNAs ([3]; 6-hour LPS treatment (FIG. 8A)): restored the levels of all the markers
- levels of DRP1, Opa, MFN1, MFN2, and FIS1 mRNAs ([3]; 12 hour LPS treatment (FIG. 8B)): restored the levels of all the markers, although only the change in MFN2 levels was statistically significant
- circulating levels of IL-1α, IL-1β, IL-6, TNFα and IL-10 [4]: did not reduce circulating levels
- mitochondrial abundance (Mitotracker staining) [5]: prevents CLP-associated reduction in mitochondrial abundance
- mitochondrial abundance (Mitotracker staining) ([5]; listed as SDG): restored mitochondrial abundance in vitro and in vivo
- number of mitochondria (Mitotracker) ([6]; LPS 12 h with SDG/LGM2605): prevented by treatment with LGM2605
- number of mitochondria (Mitotracker) ([6]; LPS 12 h with SDG/LGM2605, listed as SDG): more than compensated for this LPS-dependent drop; also recorded: restored mitochondrial abundance in vitro and in vivo
- ROS accumulation (DHE staining intensity) [7]: alleviated significantly by LGM2605 administration
- ROS accumulation (DHE staining intensity) ([7]; listed as SDG): reduced ROS accumulation
